Reference: US5376688A, “Enhanced solubility pharmaceutical solutions” (R. P. Scherer Corporation, priority 1992, dated 1994)
Where a SMILES comes first, the peptide text is derived from it.

Assays:
[1] = Saturated aspartame solutions: solubility with potassium hydroxide; type: physicochemical; settings: for ASPARTAME SOLUBILITY (%): saturated solution
Description: The following saturated aspartame solutions were prepared, using aspartame as a model of an amphoteric pharmaceutical agent. These solutions contain the indicated amount of aspartame, the indicated solvent and the indicated amount of potassium hydroxide. […] The solutions were suitable for filling into soft gelatin capsules.

[2] = Saturated aspartame solutions: solubility with hydrochloric acid; type: physicochemical; settings: for ASPARTAME SOLUBILITY (%): saturated solution
From the text: The following saturated aspartame solutions were made using aspartame for a model for an amphoteric pharmaceutical agent. […] These solutions are suitable for filling into soft gelatin capsules.

[3] = Saturated ibuprofen solutions: solubility (weight percent) with potassium hydroxide

COC(=O)[C@H](Cc1ccccc1)NC(=O)[C@@H](N)CC(=O)O [aspartame] (H-Asp-Phe-OMe)
enhanced solubility (in words) ([1]; potassium hydroxide, except for Pluronic L62): showed enhanced solubility in the presence of the hydroxide species
ASPARTAME SOLUBILITY (%) ([1]; solvent LABRASOL, mole equivalent hydroxide 0): 0.30%
ASPARTAME SOLUBILITY (%) ([1]; solvent LABRASOL, mole equivalent hydroxide (KOH) 0.50): 0.60%
ASPARTAME SOLUBILITY (%) ([1]; solvent PLURONIC L62, mole equivalent hydroxide 0): 0.045%
ASPARTAME SOLUBILITY (%) ([1]; solvent PLURONIC L62, mole equivalent hydroxide (KOH) 0.50): 0.045%
ASPARTAME SOLUBILITY (%) ([1]; solvent TRANSCUTOL, mole equivalent hydroxide 0): 0.43%
ASPARTAME SOLUBILITY (%) ([1]; solvent TRANSCUTOL, mole equivalent hydroxide (KOH) 0.50): 0.68%
enhanced solubility (in words) ([2]; hydrochloric acid, each solvent): enhanced solubility was noted
ASPARTAME SOLUBILITY (%) ([2]; solvent LABRASOL, mole equivalent acid 0): 0.30%
ASPARTAME SOLUBILITY (%) ([2]; solvent LABRASOL, mole equivalent acid (HCl) 50 (so in the source)): 0.50%
ASPARTAME SOLUBILITY (%) ([2]; solvent PLURONIC L62, mole equivalent acid 0): 0.045%
ASPARTAME SOLUBILITY (%) ([2]; solvent PLURONIC L62, mole equivalent acid (HCl) 50 (so in the source)): 0.095%
ASPARTAME SOLUBILITY (%) ([2]; solvent TRANSCUTOL, mole equivalent acid 0): 0.43%
ASPARTAME SOLUBILITY (%) ([2]; solvent TRANSCUTOL, mole equivalent acid (HCl) 50 (so in the source)): 0.91%

CC(C)Cc1ccc(C(C)C(=O)O)cc1 (stereo not shown) [ibuprofen]
IBUPROFEN SOLUBILITY (%) ([3]; solvent LABRASOL, mole equivalent hydroxide 0, saturated solution): 25.0%
IBUPROFEN SOLUBILITY (%) ([3]; solvent LABRASOL, mole equivalent hydroxide (KOH) 0.25, saturated solution): 40.0%
IBUPROFEN SOLUBILITY (%) ([3]; solvent LABRASOL, mole equivalent hydroxide (KOH) 0.5, saturated solution): 45.0%
IBUPROFEN SOLUBILITY (%) ([3]; solvent LABRASOL, mole equivalent hydroxide (KOH) 0.75, saturated solution): 42.5%
IBUPROFEN SOLUBILITY (%) ([3]; solvent LABRASOL, mole equivalent hydroxide (KOH) 1.0, saturated solution): 40.0%
IBUPROFEN SOLUBILITY (%) ([3]; solvent PLUROL OLEIQUE, mole equivalent hydroxide 0, saturated solution): 15.0%
IBUPROFEN SOLUBILITY (%) ([3]; solvent PLUROL OLEIQUE, mole equivalent hydroxide (KOH) 0.5, saturated solution): 30.0%
IBUPROFEN SOLUBILITY (%) ([3]; solvent PLURONIC L62, mole equivalent hydroxide 0, saturated solution): 10.0%
IBUPROFEN SOLUBILITY (%) ([3]; solvent PLURONIC L62, mole equivalent hydroxide (KOH) 0.25, saturated solution): 15.0%
IBUPROFEN SOLUBILITY (%) ([3]; solvent PLURONIC L62, mole equivalent hydroxide (KOH) 0.5, saturated solution): 20.0%
IBUPROFEN SOLUBILITY (%) ([3]; solvent PLURONIC L62, mole equivalent hydroxide (KOH) 0.75, saturated solution): 27.5%
IBUPROFEN SOLUBILITY (%) ([3]; solvent PLURONIC L62, mole equivalent hydroxide (KOH) 1.0, saturated solution): 30.0%
IBUPROFEN SOLUBILITY (%) ([3]; solvent TRANSCUTOL, mole equivalent hydroxide 0, saturated solution): 42.5%
IBUPROFEN SOLUBILITY (%) ([3]; solvent TRANSCUTOL, mole equivalent hydroxide (KOH) 0.25, saturated solution): 55.0%
IBUPROFEN SOLUBILITY (%) ([3]; solvent TRANSCUTOL, mole equivalent hydroxide (KOH) 0.5, saturated solution): 60.0%
IBUPROFEN SOLUBILITY (%) ([3]; solvent TRANSCUTOL, mole equivalent hydroxide (KOH) 0.75, saturated solution): 52.5%
IBUPROFEN SOLUBILITY (%) ([3]; solvent TRANSCUTOL, mole equivalent hydroxide (KOH) 1.0, saturated solution): 52.5%
